# Measurements from patent EP0908457B1, “3-(1,2-benzisothiazol- and isoxazol-5-Y1)-2,4(1H,3H)-pyrimidinedione or thione and 3-(1,2-benzisothiazol- and isoxazol-5-y1)-4(3H)-pyrimidinone or thione herbicidal agents” (BASF AKTIENGESELLSCHAFT, priority 1997, dated 1999).
# Experiments:
# Assay type in all cases: in vivo
# [1] = system: Echinochloa oryzoides (Ard.) Fritsch.; test: Preemergence weed control under flooded paddy conditions, ECHORC (Watergrass (Calif.)); conditions: flooded paddy; for herbicidal effect rating, ECHORC: meaning of each grade not given here
# Cyperus iria = test: Preemergence weed control under flooded paddy conditions, CYPIR (Rice Flatsedge); conditions: flooded paddy; for herbicidal effect rating, CYPIR: meaning of each grade not given here
# [2] = system: Cyperus serotinus, Rottb.; test: Preemergence weed control under flooded paddy conditions, CYPSE (Flatsedge); for herbicidal effect rating, CYPSE: meaning of each grade not given here
# [3] = system: Monochoria vaginalis, Presl.; test: Preemergence weed control under flooded paddy conditions, MOOVA (Monochoria); conditions: flooded paddy; for herbicidal effect rating, MOOVA: meaning of each grade not given here
# Sagittaria pygmaea, L. = test: Preemergence weed control under flooded paddy conditions, SAGPY (Arrowhead (Pygmaea)); conditions: flooded paddy; for herbicidal effect rating, SAGPY: meaning of each grade not given here
# [4] = 0.0313 kg/ha, preemergence weeds, rated three to four weeks after treatment
# [5] = 0.0625 kg/ha, preemergence weeds, rated three to four weeks after treatment
# [6] = 0.1250 kg/ha, preemergence weeds, rated three to four weeks after treatment
# [7] = 0.2500 kg/ha, preemergence weeds, rated three to four weeks after treatment
# [8] = 0.0320 kg/ha, preemergence, rated three to four weeks after treatment
# [9] = 0.0620 kg/ha, preemergence, rated three to four weeks after treatment
# [10] = 0.1250 kg/ha, preemergence, rated three to four weeks after treatment
# [11] = 0.2500 kg/ha, preemergence, rated three to four weeks after treatment
# [12] = Rate 0.0320 kg/ha, preemergence, rated 3-4 weeks after treatment
# [13] = Rate 0.0620 kg/ha, preemergence, rated 3-4 weeks after treatment
# [14] = Rate 0.1250 kg/ha, preemergence, rated 3-4 weeks after treatment
# [15] = Rate 0.2500 kg/ha, preemergence, rated 3-4 weeks after treatment
compound,measurement,setting,value
"Cc1ccc(OCC(=O)OC(C)C(=O)O)c(-c2nsc3ccc(-n4c(=O)cc(C(F)(F)F)n(C)c4=O)cc23)c1 (racemic) [Example 190, 2-{{2-{5-[3,6-Dihydro-3-methyl-2,6-dioxo-4-(trifluoromethyl)-1(2H)-pyrimidinyl]-1,2-benzisothiazol-3-yl}-p-tolyl}oxy}acetoxy}-propionic acid, DL-]","herbicidal effect rating, ECHORC",[1]; [4],2.0
same,"herbicidal effect rating, ECHORC",[1]; [5],4.0
same,"herbicidal effect rating, ECHORC",[1]; [6],7.0
same,"herbicidal effect rating, ECHORC",[1]; [7],8.0
same,"herbicidal effect rating, CYPIR",Cyperus iria; [4],0.0
same,"herbicidal effect rating, CYPIR",Cyperus iria; [5],0.0
same,"herbicidal effect rating, CYPIR",Cyperus iria; [6],2.0
same,"herbicidal effect rating, CYPIR",Cyperus iria; [7],4.0
same,"herbicidal effect rating, CYPSE",[2]; [4],0.0
same,"herbicidal effect rating, CYPSE",[2]; [5],0.0
same,"herbicidal effect rating, CYPSE",[2]; [6],0.0
same,"herbicidal effect rating, CYPSE",[2]; [7],0.0
same,"herbicidal effect rating, MOOVA",[3]; [4],9.0
same,"herbicidal effect rating, MOOVA",[3]; [5],9.0
same,"herbicidal effect rating, MOOVA",[3]; [6],9.0
same,"herbicidal effect rating, MOOVA",[3]; [7],9.0
same,"herbicidal effect rating, SAGPY","Sagittaria pygmaea, L.; [4]",0.0
same,"herbicidal effect rating, SAGPY","Sagittaria pygmaea, L.; [5]",0.0
same,"herbicidal effect rating, SAGPY","Sagittaria pygmaea, L.; [6]",0.0
same,"herbicidal effect rating, SAGPY","Sagittaria pygmaea, L.; [7]",0.0
"Cn1c(C(F)(F)F)cc(=O)n(-c2ccc3snc(COC(=O)C(C)(C)C)c3c2)c1=O [Example 498, 2,4(1H,3H)-Pyrimidinedione, 3-[3-(hydroxymethyl)-1,2-benzisothiazol-5-yl]-1-methyl-6-(trifluoromethyl)-, pivalate (ester)]",ECHORC herbicidal rating,[1]; [8],0.0
same,ECHORC herbicidal rating,[1]; [9],3.0
same,ECHORC herbicidal rating,[1]; [10],5.0
same,ECHORC herbicidal rating,[1]; [11],6.0
same,CYPIR herbicidal rating,Cyperus iria; [8],2.0
same,CYPIR herbicidal rating,Cyperus iria; [9],5.0
same,CYPIR herbicidal rating,Cyperus iria; [10],9.0
same,CYPIR herbicidal rating,Cyperus iria; [11],9.0
same,CYPSE herbicidal rating,[2]; [10],0.0
same,MOOVA herbicidal rating,[3]; [8],4.0
same,MOOVA herbicidal rating,[3]; [9],5.0
same,MOOVA herbicidal rating,[3]; [10],7.0
same,MOOVA herbicidal rating,[3]; [11],8.0
same,SAGPY herbicidal rating,"Sagittaria pygmaea, L.; [8]",0.0
same,SAGPY herbicidal rating,"Sagittaria pygmaea, L.; [9]",0.0
same,SAGPY herbicidal rating,"Sagittaria pygmaea, L.; [10]",3.0
same,SAGPY herbicidal rating,"Sagittaria pygmaea, L.; [11]",6.0
"CC/C=C/CCCCCCCCCCOC(=O)COc1ccc(C)cc1-c1nsc2ccc(-n3c(=O)cc(C(F)(F)F)n(C)c3=O)cc12 [Example 526, Acetic acid, {{2-{5-[3,6-dihydro-3-methyl-2,6-dioxo-4-(trifluoromethyl)-1(2H)-pyrimidinyl]-1,2-benzisothiazol-3-yl}-p-tolyl}oxy}-, 11-tetradecenyl ester, (E)-]","herbicidal effect rating, ECHORC",[1]; [12],2.0
same,"herbicidal effect rating, ECHORC",[1]; [13],2.0
same,"herbicidal effect rating, ECHORC",[1]; [14],4.0
same,"herbicidal effect rating, ECHORC",[1]; [15],6.0
same,"herbicidal effect rating, CYPIR",Cyperus iria; [12],2.0
same,"herbicidal effect rating, CYPIR",Cyperus iria; [13],4.0
same,"herbicidal effect rating, CYPIR",Cyperus iria; [14],7.0
same,"herbicidal effect rating, CYPIR",Cyperus iria; [15],9.0
same,"herbicidal effect rating, CYPSE",[2]; [12],0.0
same,"herbicidal effect rating, CYPSE",[2]; [13],0.0
same,"herbicidal effect rating, CYPSE",[2]; [14],0.0
same,"herbicidal effect rating, CYPSE",[2]; [15],0.0
same,"herbicidal effect rating, MOOVA",[3]; [12],8.0
same,"herbicidal effect rating, MOOVA",[3]; [13],9.0
same,"herbicidal effect rating, MOOVA",[3]; [14],9.0
same,"herbicidal effect rating, MOOVA",[3]; [15],9.0
same,"herbicidal effect rating, SAGPY","Sagittaria pygmaea, L.; [12]",0.0
same,"herbicidal effect rating, SAGPY","Sagittaria pygmaea, L.; [13]",0.0
same,"herbicidal effect rating, SAGPY","Sagittaria pygmaea, L.; [14]",0.0
same,"herbicidal effect rating, SAGPY","Sagittaria pygmaea, L.; [15]",0.0
"Cn1c(C(F)(F)F)cc(=O)n(-c2ccc3snc(COC(=O)c4ccc([N+](=O)[O-])o4)c3c2)c1=O [Example 476, 2,4(1H,3H)-Pyrimidinedione, 3-[3-(hydroxymethyl)-1,2-benzisothiazol-5-yl]-1-methyl-6-(trifluoromethyl)-, 5-nitro-2-furoate (ester)]",ECHORC herbicidal rating,[1]; [8],0.0
same,ECHORC herbicidal rating,[1]; [9],2.0
same,ECHORC herbicidal rating,[1]; [10],2.0
same,ECHORC herbicidal rating,[1]; [11],3.0
same,CYPIR herbicidal rating,Cyperus iria; [8],4.0
same,CYPIR herbicidal rating,Cyperus iria; [9],4.0
same,CYPIR herbicidal rating,Cyperus iria; [10],9.0
same,CYPIR herbicidal rating,Cyperus iria; [11],9.0
same,CYPSE herbicidal rating,[2]; [8],0.0
same,CYPSE herbicidal rating,[2]; [10],3.0
same,CYPSE herbicidal rating,[2]; [11],6.0
same,MOOVA herbicidal rating,[3]; [8],5.0
same,MOOVA herbicidal rating,[3]; [9],6.0
same,MOOVA herbicidal rating,[3]; [10],6.0
same,MOOVA herbicidal rating,[3]; [11],9.0
same,SAGPY herbicidal rating,"Sagittaria pygmaea, L.; [8]",0.0
same,SAGPY herbicidal rating,"Sagittaria pygmaea, L.; [9]",2.0
same,SAGPY herbicidal rating,"Sagittaria pygmaea, L.; [10]",4.0
same,SAGPY herbicidal rating,"Sagittaria pygmaea, L.; [11]",5.0
"Cn1c(C(F)(F)F)cc(=O)n(-c2ccc3snc(COC(=O)c4cc(Cl)nc(Cl)c4)c3c2)c1=O [Example 474, 2,4(1H,3H)-Pyrimidinedione, 3-[3-(hydroxymethyl)-1,2-benzisothiazol-5-yl]-1-methyl-6-(trifluoromethyl)-, 2,6-dichloroisonicotinate (ester)]",ECHORC herbicidal rating,[1]; [8],0.0
same,ECHORC herbicidal rating,[1]; [9],0.0
same,ECHORC herbicidal rating,[1]; [10],0.0
same,ECHORC herbicidal rating,[1]; [11],0.0
same,CYPIR herbicidal rating,Cyperus iria; [8],2.0
same,CYPIR herbicidal rating,Cyperus iria; [9],5.0
same,CYPIR herbicidal rating,Cyperus iria; [10],4.0
same,CYPIR herbicidal rating,Cyperus iria; [11],6.0
same,CYPSE herbicidal rating,[2]; [8],0.0
same,CYPSE herbicidal rating,[2]; [9],0.0
same,CYPSE herbicidal rating,[2]; [10],0.0
same,CYPSE herbicidal rating,[2]; [11],0.0
same,MOOVA herbicidal rating,[3]; [8],2.0
same,MOOVA herbicidal rating,[3]; [9],3.0
same,MOOVA herbicidal rating,[3]; [10],7.0
same,MOOVA herbicidal rating,[3]; [11],9.0
same,SAGPY herbicidal rating,"Sagittaria pygmaea, L.; [8]",0.0
same,SAGPY herbicidal rating,"Sagittaria pygmaea, L.; [9]",0.0
same,SAGPY herbicidal rating,"Sagittaria pygmaea, L.; [10]",0.0
same,SAGPY herbicidal rating,"Sagittaria pygmaea, L.; [11]",0.0
CC(C)=NOC(=O)COc1ccc(C)cc1-c1nsc2ccc(-n3c(=O)cc(C(F)(F)F)n(C)c3=O)cc12 [Example 194],"herbicidal effect rating, ECHORC",[1]; [4],0.0
same,"herbicidal effect rating, ECHORC",[1]; [5],2.0
same,"herbicidal effect rating, ECHORC",[1]; [6],6.0
same,"herbicidal effect rating, ECHORC",[1]; [7],9.0
same,"herbicidal effect rating, CYPIR",Cyperus iria; [4],0.0
same,"herbicidal effect rating, CYPIR",Cyperus iria; [5],0.0
same,"herbicidal effect rating, CYPIR",Cyperus iria; [6],0.0
same,"herbicidal effect rating, CYPIR",Cyperus iria; [7],0.0
same,"herbicidal effect rating, CYPSE",[2]; [4],0.0
same,"herbicidal effect rating, CYPSE",[2]; [5],0.0
same,"herbicidal effect rating, CYPSE",[2]; [6],0.0
same,"herbicidal effect rating, CYPSE",[2]; [7],0.0
same,"herbicidal effect rating, MOOVA",[3]; [4],9.0
same,"herbicidal effect rating, MOOVA",[3]; [5],9.0
same,"herbicidal effect rating, MOOVA",[3]; [6],9.0
same,"herbicidal effect rating, MOOVA",[3]; [7],9.0
same,"herbicidal effect rating, SAGPY","Sagittaria pygmaea, L.; [4]",0.0
same,"herbicidal effect rating, SAGPY","Sagittaria pygmaea, L.; [5]",0.0
same,"herbicidal effect rating, SAGPY","Sagittaria pygmaea, L.; [6]",0.0
same,"herbicidal effect rating, SAGPY","Sagittaria pygmaea, L.; [7]",0.0
